Test [1] concerns the target T1, human TLR7 (Homo sapiens, UniProt Q9NYK1).
T1 construct: expressed in transfected cells; host or cells: HEK293
T1 sequence (Q9NYK1 27-1049): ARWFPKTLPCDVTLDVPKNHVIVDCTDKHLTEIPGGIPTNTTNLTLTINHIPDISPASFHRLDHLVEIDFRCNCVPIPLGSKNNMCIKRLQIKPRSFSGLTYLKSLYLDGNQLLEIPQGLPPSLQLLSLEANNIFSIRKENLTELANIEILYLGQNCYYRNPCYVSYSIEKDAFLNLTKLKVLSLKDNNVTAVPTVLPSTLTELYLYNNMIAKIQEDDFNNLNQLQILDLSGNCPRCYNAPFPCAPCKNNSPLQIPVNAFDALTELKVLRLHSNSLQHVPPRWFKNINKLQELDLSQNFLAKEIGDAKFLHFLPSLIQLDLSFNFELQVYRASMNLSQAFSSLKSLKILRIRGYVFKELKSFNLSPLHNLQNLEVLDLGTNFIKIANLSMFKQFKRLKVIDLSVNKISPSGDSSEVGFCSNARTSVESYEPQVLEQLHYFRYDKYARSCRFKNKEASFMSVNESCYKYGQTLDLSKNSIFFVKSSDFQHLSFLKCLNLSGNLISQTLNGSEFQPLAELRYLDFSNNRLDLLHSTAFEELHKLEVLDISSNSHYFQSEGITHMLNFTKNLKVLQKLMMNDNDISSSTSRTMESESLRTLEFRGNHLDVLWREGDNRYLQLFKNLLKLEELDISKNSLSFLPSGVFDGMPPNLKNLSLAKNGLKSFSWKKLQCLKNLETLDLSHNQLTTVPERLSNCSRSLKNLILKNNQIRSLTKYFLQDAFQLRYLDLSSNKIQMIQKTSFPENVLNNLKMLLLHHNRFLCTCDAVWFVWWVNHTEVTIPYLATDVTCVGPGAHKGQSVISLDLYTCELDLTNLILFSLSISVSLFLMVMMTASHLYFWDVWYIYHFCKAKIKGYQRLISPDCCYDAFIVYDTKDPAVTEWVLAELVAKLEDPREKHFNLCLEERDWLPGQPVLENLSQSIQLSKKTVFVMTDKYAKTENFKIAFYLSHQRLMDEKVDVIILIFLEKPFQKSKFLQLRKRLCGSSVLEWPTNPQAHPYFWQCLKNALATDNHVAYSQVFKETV
Put plainly: TLR7 NFκB-luc cellular reporter assay in transiently transfected HEK293 cells. The settings on record: lowest effective concentration; HEK293 cells transfected with wild type TLR7 and NFκB-luc reporter, 6 h incubation. Type of test: cell-based. On the procedure: (§1) The ability of compounds to activate human TLR7 and/or TLR8 was assessed in a cellular reporter assay using HEK293 cells transiently transfected with a TLR7 or TLR8 expression vector and NFκB-luc reporter construct. In one instance, the TLR expression construct expresses the respective wild type sequence or a mutant sequence comprising a deletion in the second leucine-rich repeat of the TLR.
(§2) HEK293 cells were grown in culture medium (DMEM supplemented with 10% FCS and 2 mM Glutamine). For transfection of cells in 10 cm dishes, cells were detached with Trypsin-EDTA, transfected with a mix of CMV-TLR7 or TLR8 plasmid (750 ng), NFκB-luc plasmid (375 ng) and a transfection reagent and incubated 24 h at 37° C. in a humidified 5% C02 atmosphere. Transfected cells were then detached with Trypsin-EDTA, washed in PBS and re-suspended in medium to a density of 1.67×10^5 cells/mL. Thirty microliters of cells were then dispensed into each well in 384-well plates, where 10 μL of compound in 4% DMSO was already present. Following 6 h incubation at 37° C., 5% CO2, the luciferase activity was determined by adding 15 μl of STEADY LITE PLUS substrate (PERKIN ELMER) to each well and readout performed on a VIEWLUX ULTRAHTS microplate imager (PERKIN ELMER). Dose response curves were generated from measurements performed in quadruplicates. Lowest effective concentrations (LEC) values, defined as the concentration that induces an effect which is at least two-fold above the standard deviation of the assay, were determined for each compound.
On the technique in general: In a reporter assay the amount or activity of a reporter protein is the signal.

Test [2] concerns the target T2, human TLR8 (Homo sapiens, UniProt Q9NR97).
T2 construct: expressed in transfected cells; host or cells: HEK293
T2 sequence (Q9NR97 27-1041): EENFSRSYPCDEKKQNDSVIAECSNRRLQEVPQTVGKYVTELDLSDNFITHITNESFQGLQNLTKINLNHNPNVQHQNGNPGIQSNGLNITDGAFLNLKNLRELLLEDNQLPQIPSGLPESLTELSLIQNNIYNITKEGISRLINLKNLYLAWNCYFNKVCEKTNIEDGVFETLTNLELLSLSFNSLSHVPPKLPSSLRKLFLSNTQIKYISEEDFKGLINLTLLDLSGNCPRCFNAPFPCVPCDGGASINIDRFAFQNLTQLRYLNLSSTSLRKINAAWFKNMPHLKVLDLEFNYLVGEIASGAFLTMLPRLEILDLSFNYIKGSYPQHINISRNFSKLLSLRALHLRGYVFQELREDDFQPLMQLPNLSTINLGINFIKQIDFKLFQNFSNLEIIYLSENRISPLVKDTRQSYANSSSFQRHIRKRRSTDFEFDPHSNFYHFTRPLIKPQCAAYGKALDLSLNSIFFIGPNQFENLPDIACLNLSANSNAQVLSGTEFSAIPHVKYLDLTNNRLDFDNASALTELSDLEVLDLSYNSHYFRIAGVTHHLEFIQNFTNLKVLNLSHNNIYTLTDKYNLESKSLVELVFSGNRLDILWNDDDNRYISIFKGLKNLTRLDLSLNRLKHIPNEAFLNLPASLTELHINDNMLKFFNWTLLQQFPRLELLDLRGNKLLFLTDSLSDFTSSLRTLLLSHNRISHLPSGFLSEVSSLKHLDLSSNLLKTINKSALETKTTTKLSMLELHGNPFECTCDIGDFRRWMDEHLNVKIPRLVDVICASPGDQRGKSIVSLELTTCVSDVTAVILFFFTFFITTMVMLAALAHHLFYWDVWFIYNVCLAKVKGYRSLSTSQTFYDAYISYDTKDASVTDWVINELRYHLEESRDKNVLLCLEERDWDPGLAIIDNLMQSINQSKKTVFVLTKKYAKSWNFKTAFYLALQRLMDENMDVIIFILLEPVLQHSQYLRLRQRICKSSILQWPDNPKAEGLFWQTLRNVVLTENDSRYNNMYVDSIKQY
Put plainly: TLR8 NFκB-luc cellular reporter assay in transiently transfected HEK293 cells. Type of test: cell-based. The conditions noted are these: lowest effective concentration; HEK293 cells transfected with wild type TLR8 and NFκB-luc reporter, 6 h incubation. Here is the method:
as §1, §2

These results are taken from patent US11597704B2, “2,4-diaminoquinazoline derivatives and medical uses thereof” (Janssen Sciences Ireland Unlimited Company, priority 2018, dated 2023).

Take `CCCC[C@H](CO)Nc1nc(N)nc2cccc(C3CC3)c12` [Compound 1, (R)-2-((2-amino-5-cyclopropylquinazolin-4-yl)amino)hexan-1-ol]: in test [1], the hTLR7-wt (LEC) is > 100 µM. Also, in test [2], the hTLR8-wt (LEC) turned out to be 0.35 µM.

`CCCC[C@H](CO)Nc1nc(N)nc2cccc(F)c12` [Compound 2, (R)-2-((2-amino-5-fluoroquinazolin-4-yl)amino)hexan-1-ol] gave a hTLR7-wt (LEC) in test [1] of 27.7 µM. Moreover, in test [2], the hTLR8-wt (LEC) was found to be 0.07 µM.

Consider `CCCC[C@H](CO)Nc1nc(N)nc2cccc(C(F)(F)F)c12` [Compound 3, (R)-2-((2-amino-5-(trifluoromethyl)quinazolin-4-yl)amino)hexan-1-ol], for which the hTLR7-wt (LEC) in test [1] is > 100 µM. The compound also gave a hTLR8-wt (LEC) in test [2] of 0.66 µM.

Take `CCCC[C@H](CO)Nc1nc(N)nc2cc(C#N)ccc12` [Compound 4, (R)-2-amino-4-((1-hydroxyhexan-2-yl)amino)quinazoline-7-carbonitrile]: in test [1], the hTLR7-wt (LEC) is > 100 µM. The same compound showed a hTLR8-wt (LEC) in test [2] of 0.14 µM.

In the case of `CCCC[C@H](CO)Nc1nc(N)nc2cc(-c3nnco3)ccc12` [Compound 5, (R)-2-((2-amino-7-(1,3,4-oxadiazol-2-yl)quinazolin-4-yl)amino)hexan-1-ol], the hTLR7-wt (LEC) in test [1] is > 25 µM. Besides, in test [2], the hTLR8-wt (LEC) was determined as 0.38 µM.

For `CCC[C@H](CO)Nc1nc(N)nc2c(C)cccc12` [Compound 6, (R)-2-((2-amino-8-methylquinazolin-4-yl)amino)pentan-1-ol], the hTLR7-wt (LEC) in test [1] was > 25 µM. The compound also displayed a hTLR8-wt (LEC) in test [2] of 5.75 µM.

As for `CCCC[C@H](CO)Nc1nc(N)nc2c(C)cccc12` [Compound 7, (R)-2-((2-amino-8-methylquinazolin-4-yl)amino)hexan-1-ol], the hTLR7-wt (LEC) in test [1] was > 25 µM. Moreover, the hTLR8-wt (LEC) in test [2] came to 0.46 µM.

For the compound `CCCC[C@H](CO)Nc1nc(N)nc2c(Cl)cccc12` [Compound 8, (R)-2-((2-amino-8-chloroquinazolin-4-yl)amino)hexan-1-ol], the hTLR7-wt (LEC) in test [1] was > 25 µM. In test [2], the hTLR8-wt (LEC) came out at 2.72 µM.

Regarding `CCCC[C@H](CO)Nc1nc(N)nc2c(F)cccc12` [Compound 9, (R)-2-((2-amino-8-fluoroquinazolin-4-yl)amino)hexan-1-ol], the hTLR7-wt (LEC) in test [1] was > 25 µM. In test [2], this compound registered a hTLR8-wt (LEC) of 0.11 µM.

On to `CCC[C@H](CO)Nc1nc(N)nc2c(F)cccc12` [Compound 10, (R)-2-((2-amino-8-fluoroquinazolin-4-yl)amino)pentan-1-ol], for which the hTLR7-wt (LEC) in test [1] was > 25 µM. In test [2], this compound had a hTLR8-wt (LEC) of 3.27 µM.

As to `CCCC[C@H](COC(=O)C(C)C)Nc1nc(N)nc2c(C)cccc12` [Compound 11, (R)-2-((2-amino-8-methylquinazolin-4-yl)amino)hexyl isobutyrate], the hTLR7-wt (LEC) in test [1] is > 25 µM. In test [2], this compound yielded a hTLR8-wt (LEC) of 0.64 µM.

Take `CCCC[C@H](CO)Nc1nc(N)nc2cccc(OC)c12` [Compound 12, (R)-2-((2-amino-5-methoxyquinazolin-4-yl)amino)hexan-1-ol]: the hTLR7-wt (LEC) in test [1] stood at 11.3 µM. Also, the hTLR8-wt (LEC) in test [2] stood at 0.39 µM.

As to `CCCC[C@H](CO)Nc1nc(N)nc2cc(F)ccc12` [Compound 13, (R)-2-((2-amino-7-fluoroquinazolin-4-yl)amino)hexan-1-ol], in test [1], the hTLR7-wt (LEC) was 29.4 µM. This compound also yielded a hTLR8-wt (LEC) in test [2] of 0.04 µM.

Consider `CCCC[C@H](CO)Nc1nc(N)nc2cc(C)ccc12` [Compound 14, (R)-2-((2-amino-7-methylquinazolin-4-yl)amino)hexan-1-ol], for which the hTLR7-wt (LEC) in test [1] is 11.5 µM. In addition, the hTLR8-wt (LEC) in test [2] came to 0.11 µM.

Take `CCCC[C@H](CO)Nc1nc(N)nc2cccc(Cl)c12` [Compound 15, (R)-2-((2-amino-5-chloroquinazolin-4-yl)amino)hexan-1-ol]: the hTLR7-wt (LEC) in test [1] was > 100 µM. The compound also registered a hTLR8-wt (LEC) in test [2] of 0.07 µM.

Take `CCCC[C@H](CO)Nc1nc(N)nc2cccc(C)c12` [Compound 16, (R)-2-((2-amino-5-methylquinazolin-4-yl)amino)hexan-1-ol]: the hTLR7-wt (LEC) in test [1] is > 100 µM. The hTLR8-wt (LEC) in test [2] is 0.19 µM.

For `CCCC[C@H](CO)Nc1nc(N)nc2c(OC)cccc12` [Compound 17, (R)-2-((2-amino-8-methoxyquinazolin-4-yl)amino)hexan-1-ol], the hTLR7-wt (LEC) in test [1] was > 50 µM. Also, in test [2], the hTLR8-wt (LEC) worked out at 3.74 µM.

`CCCC[C@H](CO)Nc1nc(N)nc2cc(C(=O)OC)ccc12` [Compound 18, Methyl (R)-2-amino-4-((1-hydroxyhexan-2-yl)amino)quinazoline-7-carboxylate]: the hTLR7-wt (LEC) in test [1] was > 100 µM. In addition, in test [2], the hTLR8-wt (LEC) is 0.57 µM.

Turning to `CCCC[C@H](CO)Nc1nc(N)nc2c(F)c(F)ccc12` [Compound 19, (R)-2-((2-amino-7,8-difluoroquinazolin-4-yl)amino)hexan-1-ol], in test [1], the hTLR7-wt (LEC) was > 100 µM. In test [2], this compound displayed a hTLR8-wt (LEC) of 0.41 µM.

Regarding `CSCC[C@H](CO)Nc1nc(N)nc2cccc(F)c12` [Compound 20, (R)-2-((2-amino-5-fluoroquinazolin-4-yl)amino)-4-(methylthio)butan-1-ol], the hTLR7-wt (LEC) in test [1] was > 50 µM. In test [2], this compound displayed a hTLR8-wt (LEC) of 0.7 µM.

In the case of `CC[C@H](C)[C@H](CO)Nc1nc(N)nc2cccc(F)c12` [Compound 21, (2R,3S)-2-((2-amino-5-fluoroquinazolin-4-yl)amino)-3-methylpentan-1-ol], in test [1], the hTLR7-wt (LEC) was determined as 1.71 µM. In test [2], this compound gave a hTLR8-wt (LEC) of 0.09 µM.

For the compound `CCCC[C@H](CO)Nc1nc(N)nc2cccc(C(=O)NC)c12` [Compound 22, (R)-2-amino-4-((1-hydroxyhexan-2-yl)amino)-N-methylquinazoline-5-carboxamide], the hTLR7-wt (LEC) in test [1] is 2.17 µM. The same compound displayed a hTLR8-wt (LEC) in test [2] of 1.81 µM.

In turn, `CCCC[C@H](CO)Nc1nc(N)nc2cc(F)cc(F)c12` [Compound 23, (R)-2-((2-amino-5,7-difluoroquinazolin-4-yl)amino)hexan-1-ol] yielded a hTLR7-wt (LEC) in test [1] of 6.24 µM. In test [2], the hTLR8-wt (LEC) turned out to be 0.04 µM.
